# From patent US20230146455A1, “TREATMENT OF INFLAMMATORY DISEASES WITH PEPTIDES AND PHARMACEUTICAL COMPOSITIONS” (Yuyu Pharma, Inc., priority 2020, published 2023)
# Values joined by “and” are separate entries in the source; they are usually repeats but may differ in a detail not shown here. Equal entries are not always repeated. Where a SMILES comes first, the peptide text is derived from it. [ ]: non-standard residue; d: D form. Hyp = O=C(O)[C@@H]1C[C@@H](O)CN1
# Tests used:
# TNF-alpha = test: Example 9 Luminex, LPS hPBMCs: TNF-alpha; type: cell-based, human
# Experimental: (§1) Treatment Human PBMCs were pretreated with YY-101, YDE-011 and YDE-043 or reference compound; Xiidra® at various concentration (ranging from 1 nM to 100 uM) for 2 h before stimulation. An equal volume of 0.5% DMSO was used as a vehicle control. Then, the cells were treated with LPS at 5 ug/ml. The supernatants from treated cells were harvested at 24 h and placed in a 96 well for Luminex cytokine & chemokine profiling using a Luminex 200 multiplex assay (Luminex; R&D system, USA).
# (§2) The main study arm with triplicate wells per group in a 24-well plate: • 1. Blank • 2. PBMC: 0.5% DMSO • 3. PBMC+LPS (5 ug/ml) • 4. PBMC+YY-101 100 uM • 5. PBMC+YY-101 10 uM • 6. PBMC+YY-101 1 uM • 7. PBMC+YY-101 0.1 uM • 8. PBMC+YY-101 0.01 uM • 9. PBMC+LPS (5 ug/ml)+Xiidra®100 uM • 10. PBMC+LPS (5 ug/ml)+Xiidra® 10 uM • 11. PBMC+LPS (5 ug/ml)+Xiidra® 1 uM • 12. PBMC+LPS (5 ug/ml)+Xiidra®0.1 uM • 13. PBMC+LPS (5 ug/ml)+Xiidra®0.01 uM • 14. PBMC+LPS (5 ug/ml)+Xiidra®0.001 uM • 15. PBMC+LPS (5 ug/ml)+YY-101 100 uM • 16. PBMC+LPS (5 ug/ml)+YY-101 10 uM • 17. PBMC+LPS (5 ug/ml)+YY-101 1 uM • 18. PBMC+LPS (5 ug/ml)+YY-101 0.1 uM • 19. PBMC+LPS (5 ug/ml)+YY-101 0.01 uM • 20. PBMC+LPS (5 ug/ml)+YY-101 0.001 uM • 21. PBMC+LPS (5 ug/ml)+YDE-011 100 uM • 22. PBMC+LPS (5 ug/ml)+YDE-011 10 uM • 23. PBMC+LPS (5 ug/ml)+YDE-011 1 uM • 24. PBMC+LPS (5 ug/ml)+YDE-011 0.1 uM • 25. PBMC+LPS (5 ug/ml)+YDE-011 0.01 uM • 26. PBMC+LPS (5 ug/ml)+YDE-011 0.001 uM • 27. PBMC+LPS (5 ug/ml)+YDE-043 100 uM • 28. PBMC+LPS (5 ug/ml)+YDE-043 10 uM • 29. PBMC+LPS (5 ug/ml)+YDE-043 1 uM • 30. PBMC+LPS (5 ug/ml)+YDE-043 0.1 uM • 31. PBMC+LPS (5 ug/ml)+YDE-043 0.01 uM • 32. PBMC+LPS (5 ug/ml)+YDE-043 0.001 uM
# (§3) Multiplex assay was used to measure 30 cytokines and chemokines. The 1:2, 1:10 and 1:200 diluted cell supernatant and serial dilution of the standard were dispensed into a 96 well plate at 50 ul/well. Then, the pre-mixed cocktail of antibody-coated magnetic beads was dispensed at 50 ul/well and incubated at room temperature for 2 h in a horizontal orbital microplate shaker at 800±500 rpm. The beads were washed using a magnetic device to prevent loss. The biotin-antibody was dispensed in 50 ul of each well and incubated at room temperature for 1 h in a shaker at 800±500 rpm. After washing, streptavidin-PE was added at 50 ul/well and incubated at room temperature for 30 min in a shaker under the same conditions. Finally, after washing, wash buffer (100 ul/well) was added to the plate and incubated in a shaker for 2 min. The Luminex™ 200 setting were set according to the manufacturer's protocol. The data was calculated with a standard five-parameter logistic nonlinear regression analysis of the data (xPonent software 4.2, USA). The levels of cytokine/chemokine are normalized to the live cell counts (1×10^5 cells/mL) and presented as concentrations per mL (pg/mL or ng/mL).
# IL-17A = test: Example 9 Luminex, LPS hPBMCs: IL-17A; type: cell-based, human
# Experimental: as §1, §2, §3
# [1] = PBMC + LPS(5 ug/ml) + test article 0.001 uM, Mean
# [2] = PBMC + LPS(5 ug/ml) + test article 0.001 uM, individual replicates (1st, 2nd, 3rd)
# [3] = PBMC + LPS(5 ug/ml) + test article 0.01 uM, Mean
# [4] = PBMC + LPS(5 ug/ml) + test article 0.01 uM, individual replicates (1st, 2nd, 3rd)
# [5] = PBMC + LPS(5 ug/ml) + test article 0.1 uM, Mean
# [6] = PBMC + LPS(5 ug/ml) + test article 0.1 uM, individual replicates (1st, 2nd, 3rd)
# [7] = PBMC + LPS(5 ug/ml) + test article 1 uM, Mean
# [8] = PBMC + LPS(5 ug/ml) + test article 1 uM, individual replicates (1st, 2nd, 3rd)
# [9] = PBMC + LPS(5 ug/ml) + test article 10 uM, Mean
# [10] = PBMC + LPS(5 ug/ml) + test article 10 uM, individual replicates (1st, 2nd, 3rd)
# [11] = PBMC + LPS(5 ug/ml) + test article 100 uM, Mean
# [12] = PBMC + LPS(5 ug/ml) + test article 100 uM, individual replicates (1st, 2nd, 3rd)
# [13] = PBMC + test article 0.01 uM, no LPS, Mean
# [14] = PBMC + test article 0.01 uM, no LPS, individual replicates (1st, 2nd)
# [15] = PBMC + test article 0.1 uM, no LPS, Mean
# [16] = PBMC + test article 0.1 uM, no LPS, individual replicates (1st, 2nd)
# [17] = PBMC + test article 1 uM, no LPS, Mean
# [18] = PBMC + test article 1 uM, no LPS, individual replicates (1st, 2nd)
# [19] = PBMC + test article 10 uM, no LPS, Mean
# [20] = PBMC + test article 10 uM, no LPS, individual replicates (1st, 2nd)
# [21] = PBMC + test article 100 uM, no LPS, Mean
# [22] = PBMC + test article 100 uM, no LPS, individual replicates (1st, 2nd)
# [23] = PBMC + LPS(5 ug/ml) + test article 0.001 uM, single replicates (1st, 2nd, 3rd)
smiles,measurement,setting,value
CC(C)C[C@H](NC(=O)CNC(=O)[C@H](CC(=O)O)NC(=O)[C@H](CCC(N)=O)NC(=O)CNC(=O)[C@@H]1C[C@@H](O)CN1)C(=O)N[C@@H](C)C(=O)NCC(=O)N1CCC[C@H]1C(=O)N[C@@H](CCCCN)C(=O)O [YY-101] (H-[Hyp]GQDGLAGPK-OH; N-terminus and C-terminus assumed),LPS-induced TNF-alpha (in words),"TNF-alpha; LPS 5 ug/mL 24 hrs, at as low as 1 nM",significantly reduced
same,TNF-alpha Concentration,TNF-alpha; [1],2433.4 pg/mL
same,TNF-alpha conc/live cell,TNF-alpha; [1],379.7 pg/10^5
same,TNF-alpha Concentration,TNF-alpha; [2],2537.1 pg/mL and 2609.2 pg/mL and 2154.0 pg/mL
same,TNF-alpha conc/live cell,TNF-alpha; [2],445.1 pg/10^5 and 367.5 pg/10^5 and 326.4 pg/10^5
same,TNF-alpha Concentration,TNF-alpha; [3],2746.9 pg/mL
same,TNF-alpha conc/live cell,TNF-alpha; [3],445.6 pg/10^5
same,TNF-alpha Concentration,TNF-alpha; [4],2819.6 pg/mL and 2784.2 pg/mL and 2636.8 pg/mL
same,TNF-alpha conc/live cell,TNF-alpha; [4],440.6 pg/10^5 and 464.0 pg/10^5 and 432.3 pg/10^5
same,TNF-alpha Concentration,TNF-alpha; [5],2852.4 pg/mL
same,TNF-alpha conc/live cell,TNF-alpha; [5],489.7 pg/10^5
same,TNF-alpha Concentration,TNF-alpha; [6],2791.9 pg/mL and 2870.4 pg/mL and 2895.0 pg/mL
same,TNF-alpha conc/live cell,TNF-alpha; [6],450.3 pg/10^5 and 552.0 pg/10^5 and 466.9 pg/10^5
same,TNF-alpha Concentration,TNF-alpha; [7],2552.6 pg/mL
same,TNF-alpha conc/live cell,TNF-alpha; [7],392.3 pg/10^5
same,TNF-alpha Concentration,TNF-alpha; [8],2738.1 pg/mL and 2506.5 pg/mL and 2413.2 pg/mL
same,TNF-alpha conc/live cell,TNF-alpha; [8],434.6 pg/10^5 and 353.0 pg/10^5 and 389.2 pg/10^5
same,TNF-alpha Concentration,TNF-alpha; [9],2746.8 pg/mL
same,TNF-alpha conc/live cell,TNF-alpha; [9],416.6 pg/10^5
same,TNF-alpha Concentration,TNF-alpha; [10],2741.2 pg/mL and 2807.3 pg/mL and 2692.0 pg/mL
same,TNF-alpha conc/live cell,TNF-alpha; [10],456.9 pg/10^5 and 438.6 pg/10^5 and 354.2 pg/10^5
same,TNF-alpha Concentration,TNF-alpha; [11],2443.4 pg/mL
same,TNF-alpha conc/live cell,TNF-alpha; [11],423.4 pg/10^5
same,TNF-alpha Concentration,TNF-alpha; [12],2569.3 pg/mL and 2318.5 pg/mL and 2442.3 pg/mL
same,TNF-alpha conc/live cell,TNF-alpha; [12],407.8 pg/10^5 and 374.0 pg/10^5 and 488.5 pg/10^5
same,TNF-alpha Concentration,TNF-alpha; [13],28.1 pg/mL
same,TNF-alpha conc/live cell,TNF-alpha; [13],5.6 pg/10^5
same,TNF-alpha Concentration,TNF-alpha; [14],26.8 pg/mL and 29.4 pg/mL
same,TNF-alpha conc/live cell,TNF-alpha; [14],5.1 pg/10^5 and 6.1 pg/10^5
same,TNF-alpha Concentration,TNF-alpha; [15],29.4 pg/mL
same,TNF-alpha conc/live cell,TNF-alpha; [15],5.8 pg/10^5
same,TNF-alpha Concentration,TNF-alpha; [16],26.8 pg/mL and 32.0 pg/mL
same,TNF-alpha conc/live cell,TNF-alpha; [16],6.1 pg/10^5 and 5.5 pg/10^5
same,TNF-alpha Concentration,TNF-alpha; [17],33.3 pg/mL
same,TNF-alpha conc/live cell,TNF-alpha; [17],6.1 pg/10^5
same,TNF-alpha Concentration,TNF-alpha; [18],32.0 pg/mL and 34.6 pg/mL
same,TNF-alpha conc/live cell,TNF-alpha; [18],5.8 pg/10^5 and 6.3 pg/10^5
same,TNF-alpha Concentration,TNF-alpha; [19],61.4 pg/mL
same,TNF-alpha conc/live cell,TNF-alpha; [19],9.7 pg/10^5
same,TNF-alpha Concentration,TNF-alpha; [20],90.9 pg/mL and 32.0 pg/mL
same,TNF-alpha conc/live cell,TNF-alpha; [20],14.2 pg/10^5 and 5.2 pg/10^5
same,TNF-alpha Concentration,TNF-alpha; [21],72.7 pg/mL
same,TNF-alpha conc/live cell,TNF-alpha; [21],11.0 pg/10^5
same,TNF-alpha Concentration,TNF-alpha; [22],95.0 pg/mL and 50.5 pg/mL
same,TNF-alpha conc/live cell,TNF-alpha; [22],14.8 pg/10^5 and 7.2 pg/10^5
same,"Concentration, IL-17A",IL-17A; [1],3.8 pg/mL
same,"MFI, Bead name: IL-17A",IL-17A; [1],2.2
same,"conc/live cell, IL-17A",IL-17A; [1],0.6 pg/10^5
same,"Concentration, IL-17A",IL-17A; [23],4.3 pg/ml (2×) and 2.7 pg/ml
same,"MFI, Bead name: IL-17A",IL-17A; [23],2.5 (2×) and 1.5
same,"conc/live cell, IL-17A",IL-17A; [23],0.8 pg/10^5 and 0.6 pg/10^5 and 0.4 pg/10^5
same,"Concentration, IL-17A",IL-17A; [3],4.9 pg/mL
same,"MFI, Bead name: IL-17A",IL-17A; [3],2.8
same,"conc/live cell, IL-17A",IL-17A; [3],0.8 pg/10^5
same,"Concentration, IL-17A","IL-17A; PBMC + LPS(5 ug/ml) + test article 0.01 uM, single replicates (1st, 2nd, 3rd)",6.0 pg/ml (2×) and 2.7 pg/ml
